# How the values were obtained:
# [1] = target: rat mGlu4 (Rattus norvegicus, UniProt P31423); test: functional assay using the rat mGlu4 protein; assay type: cell-based
# [2] = plasma protein binding, rat; assay type: in vitro ADME
# [3] = plasma protein binding, human; assay type: in vitro ADME
# [4] = plasma protein binding, dog; assay type: in vitro ADME
# [5] = plasma protein binding, mouse; assay type: in vitro ADME
# [6] = plasma protein binding, rhesus; assay type: in vitro ADME; settings: rhesus monkey
# [7] = target: T1, CYP1A2 (Homo sapiens, UniProt P05177); test: CYP450 inhibition, cocktail approach in human liver microsomes; assay type: in vitro ADME
# T1 sequence (P05177 1-516): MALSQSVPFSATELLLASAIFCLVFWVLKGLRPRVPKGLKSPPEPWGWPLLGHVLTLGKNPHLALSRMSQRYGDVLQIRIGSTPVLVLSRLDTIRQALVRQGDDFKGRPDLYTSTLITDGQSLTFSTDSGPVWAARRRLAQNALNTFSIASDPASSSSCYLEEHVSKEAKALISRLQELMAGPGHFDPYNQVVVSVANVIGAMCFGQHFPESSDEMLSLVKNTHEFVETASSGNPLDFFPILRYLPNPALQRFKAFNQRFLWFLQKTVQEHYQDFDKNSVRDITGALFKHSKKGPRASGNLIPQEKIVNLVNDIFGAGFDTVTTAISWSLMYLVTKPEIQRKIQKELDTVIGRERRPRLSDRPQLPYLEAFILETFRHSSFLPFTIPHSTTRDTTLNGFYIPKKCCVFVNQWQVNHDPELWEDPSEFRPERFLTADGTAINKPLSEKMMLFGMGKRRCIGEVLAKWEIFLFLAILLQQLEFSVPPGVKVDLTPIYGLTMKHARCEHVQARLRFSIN
# [8] = target: CYP2C9 (Homo sapiens, UniProt P11712); test: as above; assay type: in vitro ADME
# [9] = target: CYP2D6 (Homo sapiens, UniProt P10635); test: as above; assay type: in vitro ADME
# [10] = target: CYP3A4 (Homo sapiens, UniProt P08684); test: as above; assay type: in vitro ADME
# [11] = target: CYP2C19 (Homo sapiens, UniProt P33261); test: CYP450 inhibition; assay type: in vitro ADME
# [12] = in vivo PK, rhesus IV cassette; settings: rhesus monkey, plasma
# [13] = plasma/brain PO snapshot study in rats; assay type: in vivo, rat
# [14] = target: P-glycoprotein (Pgp) (Homo sapiens, UniProt P08183); test: Permeability; assay type: in vitro ADME
# [15] = target: mGlu6 (Homo sapiens, UniProt O15303); test: mGlu selectivity assays in fold-shift format; assay type: cell-based
# [16] = tested on: panel of GPCRs, enzymes, ion channels, nuclear hormone receptors and transporters; test: wider selectivity panel; settings: all targets except MAO-B
# [17] = target: T2, monoamine oxidase-B (MAO-B) (Homo sapiens, UniProt P27338); test: wider selectivity panel, MAO-B
# T2 sequence (P27338 1-520): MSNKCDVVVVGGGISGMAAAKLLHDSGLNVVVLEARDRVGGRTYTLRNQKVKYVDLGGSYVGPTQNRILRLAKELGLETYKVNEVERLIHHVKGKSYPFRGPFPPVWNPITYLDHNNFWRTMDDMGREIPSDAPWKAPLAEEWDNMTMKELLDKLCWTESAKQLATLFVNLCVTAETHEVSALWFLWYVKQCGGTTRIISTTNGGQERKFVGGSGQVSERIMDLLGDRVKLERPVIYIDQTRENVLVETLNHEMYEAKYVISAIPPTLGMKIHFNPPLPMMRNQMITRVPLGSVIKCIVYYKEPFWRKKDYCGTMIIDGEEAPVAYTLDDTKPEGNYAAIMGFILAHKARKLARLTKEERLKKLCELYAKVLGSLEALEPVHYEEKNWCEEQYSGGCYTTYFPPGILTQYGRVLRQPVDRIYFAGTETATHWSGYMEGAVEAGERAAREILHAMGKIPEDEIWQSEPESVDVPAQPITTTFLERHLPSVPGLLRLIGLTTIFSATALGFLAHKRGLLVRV
# [18] = tested on: panel of 96 kinase targets; test: DiscoveRx KINOMEscan kinase panel; assay type: binding
# [19] = tested on: nine cardiac ion channels (including hERG); test: ChanTest Cardiac Channel Panel IC50 screen; settings: human
# [20] = tested on: TA98 and TA100
# [21] = tested on: CYP1A2; test: CYP1A2 induction in cryopreserved hepatocytes; assay type: cell-based, human
# [22] = Met ID; assay type: in vitro ADME; settings: rat liver microsomes
# [23] = in vivo; settings: rat, iv, 1 mg/kg
# [24] = in vivo; settings: rat, po, 10 mg/kg
# Chain of P-glycoprotein (Pgp) (P08183 whole entry): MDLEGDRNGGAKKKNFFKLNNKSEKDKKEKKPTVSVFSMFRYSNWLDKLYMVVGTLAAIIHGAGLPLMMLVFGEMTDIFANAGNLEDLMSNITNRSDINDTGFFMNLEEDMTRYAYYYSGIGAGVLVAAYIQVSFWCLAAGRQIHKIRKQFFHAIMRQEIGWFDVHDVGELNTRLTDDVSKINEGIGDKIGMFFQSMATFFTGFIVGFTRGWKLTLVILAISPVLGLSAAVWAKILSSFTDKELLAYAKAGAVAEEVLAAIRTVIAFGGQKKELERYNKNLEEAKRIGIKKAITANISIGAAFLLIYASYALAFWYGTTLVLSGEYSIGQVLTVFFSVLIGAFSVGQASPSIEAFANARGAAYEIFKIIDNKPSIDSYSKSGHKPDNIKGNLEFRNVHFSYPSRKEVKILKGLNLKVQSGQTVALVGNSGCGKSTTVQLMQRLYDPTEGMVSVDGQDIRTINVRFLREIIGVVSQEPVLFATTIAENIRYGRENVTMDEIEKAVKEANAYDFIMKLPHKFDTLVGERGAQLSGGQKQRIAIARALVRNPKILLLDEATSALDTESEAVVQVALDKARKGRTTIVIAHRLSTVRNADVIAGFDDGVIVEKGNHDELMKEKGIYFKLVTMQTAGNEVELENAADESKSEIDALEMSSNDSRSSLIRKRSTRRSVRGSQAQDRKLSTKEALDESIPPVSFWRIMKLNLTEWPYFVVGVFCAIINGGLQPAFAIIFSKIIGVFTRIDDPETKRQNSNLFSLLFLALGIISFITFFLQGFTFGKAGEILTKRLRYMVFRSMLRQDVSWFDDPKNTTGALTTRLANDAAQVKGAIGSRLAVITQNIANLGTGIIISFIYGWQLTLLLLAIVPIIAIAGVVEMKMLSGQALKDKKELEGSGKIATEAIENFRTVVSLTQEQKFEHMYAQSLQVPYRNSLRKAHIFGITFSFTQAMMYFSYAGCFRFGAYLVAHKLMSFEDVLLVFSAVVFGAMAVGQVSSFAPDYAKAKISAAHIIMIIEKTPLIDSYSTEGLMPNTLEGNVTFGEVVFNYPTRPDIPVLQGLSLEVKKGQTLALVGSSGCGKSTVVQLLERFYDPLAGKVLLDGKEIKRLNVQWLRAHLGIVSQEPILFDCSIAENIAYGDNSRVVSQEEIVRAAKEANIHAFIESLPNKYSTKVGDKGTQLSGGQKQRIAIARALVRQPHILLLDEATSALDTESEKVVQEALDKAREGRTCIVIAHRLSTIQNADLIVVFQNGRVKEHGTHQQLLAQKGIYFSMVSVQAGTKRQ
# Chain of CYP2C19 (P33261 whole entry): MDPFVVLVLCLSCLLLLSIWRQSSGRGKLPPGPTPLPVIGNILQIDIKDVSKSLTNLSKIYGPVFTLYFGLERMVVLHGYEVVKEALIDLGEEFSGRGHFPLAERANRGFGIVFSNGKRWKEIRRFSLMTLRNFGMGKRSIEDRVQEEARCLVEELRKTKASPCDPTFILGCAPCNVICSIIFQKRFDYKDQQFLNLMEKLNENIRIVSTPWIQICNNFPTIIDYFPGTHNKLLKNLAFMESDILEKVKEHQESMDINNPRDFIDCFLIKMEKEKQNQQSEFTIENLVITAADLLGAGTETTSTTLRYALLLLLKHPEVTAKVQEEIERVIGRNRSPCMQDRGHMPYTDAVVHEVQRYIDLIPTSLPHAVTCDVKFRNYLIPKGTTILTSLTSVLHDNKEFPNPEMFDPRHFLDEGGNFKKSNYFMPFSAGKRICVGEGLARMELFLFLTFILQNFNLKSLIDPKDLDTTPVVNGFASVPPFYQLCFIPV
# Chain of rat mGlu4 (P31423 33-912): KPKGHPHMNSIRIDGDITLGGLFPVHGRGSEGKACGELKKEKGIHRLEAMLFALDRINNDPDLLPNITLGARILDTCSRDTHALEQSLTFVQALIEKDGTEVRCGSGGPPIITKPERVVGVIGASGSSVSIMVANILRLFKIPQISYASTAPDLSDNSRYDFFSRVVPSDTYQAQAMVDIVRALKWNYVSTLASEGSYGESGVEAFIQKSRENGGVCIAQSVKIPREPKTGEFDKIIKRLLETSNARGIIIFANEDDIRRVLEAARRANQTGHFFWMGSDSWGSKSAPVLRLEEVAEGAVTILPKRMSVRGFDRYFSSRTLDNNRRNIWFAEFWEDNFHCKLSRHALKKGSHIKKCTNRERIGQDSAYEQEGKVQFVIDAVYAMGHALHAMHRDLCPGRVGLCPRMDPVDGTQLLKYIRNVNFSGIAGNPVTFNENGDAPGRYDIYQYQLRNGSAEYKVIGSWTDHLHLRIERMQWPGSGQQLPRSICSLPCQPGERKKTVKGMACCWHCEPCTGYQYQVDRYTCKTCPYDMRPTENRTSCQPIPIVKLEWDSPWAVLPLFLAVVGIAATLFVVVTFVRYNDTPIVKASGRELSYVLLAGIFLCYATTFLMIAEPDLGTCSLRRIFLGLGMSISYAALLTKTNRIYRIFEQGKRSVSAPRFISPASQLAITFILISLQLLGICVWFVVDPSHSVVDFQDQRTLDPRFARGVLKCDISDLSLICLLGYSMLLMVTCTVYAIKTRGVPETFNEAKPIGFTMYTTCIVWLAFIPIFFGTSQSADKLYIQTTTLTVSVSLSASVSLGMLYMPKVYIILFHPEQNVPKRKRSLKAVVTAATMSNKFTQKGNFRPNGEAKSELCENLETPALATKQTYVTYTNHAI
# Chain of CYP3A4 (P08684 whole entry): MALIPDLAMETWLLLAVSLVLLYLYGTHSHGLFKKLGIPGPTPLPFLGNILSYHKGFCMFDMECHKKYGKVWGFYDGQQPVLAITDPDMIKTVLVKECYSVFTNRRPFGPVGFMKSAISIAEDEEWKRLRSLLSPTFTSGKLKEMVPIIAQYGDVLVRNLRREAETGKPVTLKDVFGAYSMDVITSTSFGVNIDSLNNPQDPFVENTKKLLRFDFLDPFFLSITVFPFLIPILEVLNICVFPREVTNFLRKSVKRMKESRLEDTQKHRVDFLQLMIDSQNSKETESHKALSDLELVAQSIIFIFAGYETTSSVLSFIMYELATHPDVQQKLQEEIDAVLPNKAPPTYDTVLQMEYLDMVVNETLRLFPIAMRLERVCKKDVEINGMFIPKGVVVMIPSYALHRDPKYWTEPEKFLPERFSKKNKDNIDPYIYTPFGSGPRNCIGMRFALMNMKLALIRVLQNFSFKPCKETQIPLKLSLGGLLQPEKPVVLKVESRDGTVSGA
# Chain of CYP2D6 (P10635 whole entry): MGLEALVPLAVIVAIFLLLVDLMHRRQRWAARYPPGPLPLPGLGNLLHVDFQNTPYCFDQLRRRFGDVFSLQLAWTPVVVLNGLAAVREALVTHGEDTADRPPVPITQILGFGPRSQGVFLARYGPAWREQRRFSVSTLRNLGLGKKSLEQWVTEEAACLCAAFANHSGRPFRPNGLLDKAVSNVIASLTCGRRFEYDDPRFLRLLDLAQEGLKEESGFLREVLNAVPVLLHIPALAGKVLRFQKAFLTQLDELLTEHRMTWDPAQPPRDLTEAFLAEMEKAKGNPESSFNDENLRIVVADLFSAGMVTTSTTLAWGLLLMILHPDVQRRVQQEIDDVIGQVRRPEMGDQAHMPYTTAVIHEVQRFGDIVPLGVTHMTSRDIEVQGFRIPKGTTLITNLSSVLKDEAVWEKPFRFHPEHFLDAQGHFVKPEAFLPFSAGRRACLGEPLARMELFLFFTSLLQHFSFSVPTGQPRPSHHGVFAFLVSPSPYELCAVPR
# Chain of mGlu6 (O15303 25-877): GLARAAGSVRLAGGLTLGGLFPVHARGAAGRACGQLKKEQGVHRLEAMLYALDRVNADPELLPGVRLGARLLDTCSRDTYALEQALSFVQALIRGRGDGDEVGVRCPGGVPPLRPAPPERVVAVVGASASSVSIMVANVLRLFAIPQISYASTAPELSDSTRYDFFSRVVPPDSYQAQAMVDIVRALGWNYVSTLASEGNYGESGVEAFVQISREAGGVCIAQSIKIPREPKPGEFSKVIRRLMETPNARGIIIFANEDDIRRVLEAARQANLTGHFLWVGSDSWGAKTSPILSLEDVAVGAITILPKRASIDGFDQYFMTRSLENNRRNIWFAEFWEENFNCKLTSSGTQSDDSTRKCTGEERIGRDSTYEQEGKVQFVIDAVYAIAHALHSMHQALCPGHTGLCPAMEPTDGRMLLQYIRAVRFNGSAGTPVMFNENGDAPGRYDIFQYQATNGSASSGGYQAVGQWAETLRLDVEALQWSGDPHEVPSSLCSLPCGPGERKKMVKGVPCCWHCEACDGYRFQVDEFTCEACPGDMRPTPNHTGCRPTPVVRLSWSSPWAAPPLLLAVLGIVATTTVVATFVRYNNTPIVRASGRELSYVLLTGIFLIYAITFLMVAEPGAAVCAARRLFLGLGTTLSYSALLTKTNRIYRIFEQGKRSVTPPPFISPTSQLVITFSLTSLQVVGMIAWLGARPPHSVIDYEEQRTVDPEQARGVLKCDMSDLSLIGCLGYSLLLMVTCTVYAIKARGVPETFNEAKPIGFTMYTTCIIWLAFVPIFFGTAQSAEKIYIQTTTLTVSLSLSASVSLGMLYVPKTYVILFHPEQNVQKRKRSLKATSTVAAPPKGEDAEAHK
# Chain of CYP2C9 (P11712 whole entry): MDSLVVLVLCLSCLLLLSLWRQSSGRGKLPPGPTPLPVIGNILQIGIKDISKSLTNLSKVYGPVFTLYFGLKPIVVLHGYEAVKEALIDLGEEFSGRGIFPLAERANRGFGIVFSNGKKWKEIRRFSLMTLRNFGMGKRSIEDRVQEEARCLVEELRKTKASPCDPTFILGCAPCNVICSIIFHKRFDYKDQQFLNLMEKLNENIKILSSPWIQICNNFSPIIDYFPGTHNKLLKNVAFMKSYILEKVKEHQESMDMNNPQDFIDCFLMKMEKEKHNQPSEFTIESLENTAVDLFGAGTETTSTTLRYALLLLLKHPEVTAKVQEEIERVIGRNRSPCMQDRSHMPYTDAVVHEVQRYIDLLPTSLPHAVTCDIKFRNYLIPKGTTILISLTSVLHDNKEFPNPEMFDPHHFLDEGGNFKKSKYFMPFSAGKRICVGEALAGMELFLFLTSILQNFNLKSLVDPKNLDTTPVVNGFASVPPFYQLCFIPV
smiles,measurement,setting,value
"Fc1ccc(Nc2n[nH]c3cccnc23)cc1Cl [Compound 26, N-(3-chloro-4-fluorophenyl)-1H-pyrazolo[4,3-b]pyridin-3-amine]",EC50,[1],0.046 µM
same,fraction unbound,[2]; plasma protein binding (%Fu),0.028
same,fraction unbound,"[2]; plasma protein binding (Fu), rat plasma, fraction unbound",0.028
same,plasma protein binding (%Fu),[3],1.7%
same,fraction unbound,[3]; plasma,0.017
same,fraction unbound,[4],0.009
same,fraction unbound,[5],0.019
same,fraction unbound,[6],0.014
same,IC50,[7],< 0.1 µM
same,IC50,[8],8.9 µM
same,IC50,[9],> 30 µM
same,IC50,[10],> 30 µM
same,IC50,[11],6.1 µM
same,clearance,[12],13 mL/min/kg
same,half-life,[12],3 h
same,brain AUC,[13]; rat CNS PO PBL (0−6 h),18 415 ng·h/mL
same,Kp at 6 h,"[13]; rat, brain/plasma, po",2.1
same,AUC,"[13]; rat, plasma, po",8770 ng·h/mL
same,substrate for P-glycoprotein,[14],not a substrate
same,Papp A→B,[14]; not told,24 ×10⁻⁶ cm/s
same,Papp B→A,[14]; not told,14 ×10⁻⁶ cm/s
same,activity at mGlu6,[15],functionally interact (with equipotency)
same,activity against wider panel of targets,[16],inactive
same,activity against MAO-B,[17],330 nM
same,activity against 96 kinase targets,[18],< 30%
same,IC50,[19],> 100 µM
same,mini-AMES result,[20],negative
same,CYP1A2 induction Emax,[21],104 fold-induction
same,EC50,[21]; human,9.8 µM
same,major metabolite,[22],oxodefluorination
same,AUC,[23],608 ng·h/mL
same,MRT,[23],2.2 h
same,Vd,[23],4 L/kg
same,clearance,[23],29 mL/min/kg
same,half-life,[23],1.52 h
same,bioavailability,[24]; in vivo,95%
same,AUC,[24]; plasma,7420 ng·h/mL
same,Cmax,[24]; plasma,875 ng/mL
same,Tmax,[24]; plasma,2 h
